Source: patent US6534546B1 (Chugai Seiyaku Kabushiki Kaisha, priority 1994, dated 2003)
Where a name gives a salt, the structure may show the parent alone. Read-outs that look alike come from different tables or passages of the source.

Assays:
E-cNOS (Type 3) = target: T1, E-cNOS (Type 3) (Bos taurus, UniProt P29473); assay: biochemical
T1 construct: the resulting supernatant was used as the crude enzyme sample of E-cNOS; endogenous in cells; host or cells: CPAE (cow pulmonary arterial endothelium cells), 1% Triton X-100 extract, 100,000 x g supernatant
T1 sequence (P29473 2-1205): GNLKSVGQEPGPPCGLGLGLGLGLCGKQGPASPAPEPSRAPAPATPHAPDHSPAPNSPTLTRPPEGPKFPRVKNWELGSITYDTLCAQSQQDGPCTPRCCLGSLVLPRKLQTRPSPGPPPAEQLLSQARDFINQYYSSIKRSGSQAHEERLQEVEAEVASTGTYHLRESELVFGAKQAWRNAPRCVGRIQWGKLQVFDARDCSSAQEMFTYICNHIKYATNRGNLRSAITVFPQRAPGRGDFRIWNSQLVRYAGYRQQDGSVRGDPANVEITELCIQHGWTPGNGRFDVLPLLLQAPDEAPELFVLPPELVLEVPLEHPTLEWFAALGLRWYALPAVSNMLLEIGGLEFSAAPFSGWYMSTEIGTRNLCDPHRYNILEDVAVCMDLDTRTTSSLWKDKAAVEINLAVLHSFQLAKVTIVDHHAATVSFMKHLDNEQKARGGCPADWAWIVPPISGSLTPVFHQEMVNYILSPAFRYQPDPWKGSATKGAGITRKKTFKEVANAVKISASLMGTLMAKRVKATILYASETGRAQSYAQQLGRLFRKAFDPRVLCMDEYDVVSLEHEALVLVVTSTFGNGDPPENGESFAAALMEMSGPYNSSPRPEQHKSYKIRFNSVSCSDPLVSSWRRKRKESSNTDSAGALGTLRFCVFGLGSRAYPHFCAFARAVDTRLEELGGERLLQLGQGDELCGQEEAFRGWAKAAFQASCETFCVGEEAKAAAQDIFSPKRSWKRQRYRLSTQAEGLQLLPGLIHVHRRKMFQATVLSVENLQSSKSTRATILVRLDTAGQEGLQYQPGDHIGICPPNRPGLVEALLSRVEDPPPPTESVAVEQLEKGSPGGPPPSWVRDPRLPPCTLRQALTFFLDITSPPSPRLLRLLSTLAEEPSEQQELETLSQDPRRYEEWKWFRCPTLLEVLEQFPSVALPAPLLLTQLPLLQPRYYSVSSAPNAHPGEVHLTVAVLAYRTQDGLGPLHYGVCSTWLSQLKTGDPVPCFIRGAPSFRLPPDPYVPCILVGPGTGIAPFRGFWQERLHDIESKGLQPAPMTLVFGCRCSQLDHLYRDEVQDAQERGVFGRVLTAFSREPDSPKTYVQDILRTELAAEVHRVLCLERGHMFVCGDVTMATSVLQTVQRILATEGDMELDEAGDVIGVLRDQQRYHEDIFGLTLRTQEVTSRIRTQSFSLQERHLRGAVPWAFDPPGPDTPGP
Procedure: The crude enzyme sample of E-cNOS was prepared by the following procedure. A cow pulmonary arterial endothielium cell (CPAE) was cultured in a MEM medium containing 20% FBS. […] A suitable amount of Ca- and Mg-free phosphate buffer (pH 7.4) was added to the precipitating cells and they were centrifuged at 1,000 rpm for 10 min. The same step was repeated to wash the cells which, upon addition of 50 mM Tris-HCl (pH 7.4) containing 1% Triton X-100 and 1 mM DTT, were left to stand in ice for 1 h. Subsequently, the mixture was homogenized for 3 min and kept in ice for 30 min with occasional stirring. Finally, the mixture was centrifuged at 100,000×g for 60 min and the resulting supernatant was used as the crude enzyme sample of E-cNOS.
The reaction was started by addition of L-[^3H]arginine and following incubation at 37° C. for 10 min, the reaction was terminated by addition of 2 ml of 50 mM Tris-HCl (pH 5.5) containing 1 mM EDTA and placing the mixture on ice. The reaction solution was passed through a cation-exchange resin column (Dowex AG50WX-8, Na^+ form, 3.2 ml) to separate the reaction product L-[^3H]citrulline from the unreacted residual substrate L-[^3H]arginine. The eluate was combined with another eluate resulting from the passage of a given amount of distilled water through the column and put into a minivial for recovery of L-[^3H]citrulline. Thereafter, a scintillation fluid was added and the contained radioactivity was measured with a liquid scintillation counter to determine the amount of L-[^3H]citrulline.
The activity of N-cNOS or E-cNOS was determined by subtracting the activity as detected in the absence of CaCl2 and calmodulin from the activity as detected in the presence of CaCl2 and calmodulin. […] The protein concentration of each crude enzyme sample was determined with a micro-assay kit of Biorad Co. Each experiment was conducted in a duplicate.

iNOS (Type 2) = iNOS (Type 2) (Rattus norvegicus, UniProt Q06518); assay: biochemical; assay type: biochemical
Sequence of iNOS (Type 2) (Q06518 whole entry, looked up): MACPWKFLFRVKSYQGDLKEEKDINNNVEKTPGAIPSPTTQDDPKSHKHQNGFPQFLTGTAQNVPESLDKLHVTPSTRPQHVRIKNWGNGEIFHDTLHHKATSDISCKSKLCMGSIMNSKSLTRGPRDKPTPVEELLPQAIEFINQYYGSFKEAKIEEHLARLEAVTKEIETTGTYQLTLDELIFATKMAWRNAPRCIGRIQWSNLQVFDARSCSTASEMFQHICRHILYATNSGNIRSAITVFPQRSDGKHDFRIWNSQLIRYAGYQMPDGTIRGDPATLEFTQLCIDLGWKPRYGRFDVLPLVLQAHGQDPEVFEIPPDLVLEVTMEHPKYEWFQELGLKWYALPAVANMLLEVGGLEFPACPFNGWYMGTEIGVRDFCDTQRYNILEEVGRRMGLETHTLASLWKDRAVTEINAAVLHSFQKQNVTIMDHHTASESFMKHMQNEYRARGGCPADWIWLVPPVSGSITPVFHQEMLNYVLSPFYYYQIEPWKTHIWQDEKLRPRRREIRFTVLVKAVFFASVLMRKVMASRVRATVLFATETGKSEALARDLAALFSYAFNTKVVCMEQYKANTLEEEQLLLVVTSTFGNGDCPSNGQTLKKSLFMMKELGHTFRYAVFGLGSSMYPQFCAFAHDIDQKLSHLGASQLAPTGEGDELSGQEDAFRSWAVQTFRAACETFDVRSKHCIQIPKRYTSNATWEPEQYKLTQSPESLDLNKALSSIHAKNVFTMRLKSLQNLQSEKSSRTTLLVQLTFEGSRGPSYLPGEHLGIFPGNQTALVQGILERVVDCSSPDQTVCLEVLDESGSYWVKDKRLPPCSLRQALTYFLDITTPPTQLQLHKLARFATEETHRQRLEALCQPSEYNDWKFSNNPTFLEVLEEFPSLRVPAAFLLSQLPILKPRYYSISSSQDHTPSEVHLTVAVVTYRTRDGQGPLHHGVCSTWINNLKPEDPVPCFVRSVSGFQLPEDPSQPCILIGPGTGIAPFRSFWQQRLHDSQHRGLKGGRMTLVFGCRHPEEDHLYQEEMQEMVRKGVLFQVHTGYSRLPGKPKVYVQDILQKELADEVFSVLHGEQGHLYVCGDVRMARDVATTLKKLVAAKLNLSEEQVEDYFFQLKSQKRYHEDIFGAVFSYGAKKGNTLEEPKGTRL

[1] = tested on: rat model of focal cerebral ischemia (permanent MCA occlusion); assay: Brain edema (brain water content, dry-wet method) after 48-h occlusion of the left middle cerebral artery; assay type: in vivo; details: 48 hours after MCA occlusion
Procedure: An experiment was conducted to evaluate the effectiveness of a compound within the scope of the invention using a rat model of focal cerebral ischemia. Such models were prepared by occluding the left middle cerebral artery (MCA) in accordance with the method already reported by the present inventors (Nagafuji et al., Neurosci. Lett. 147, 159-162, 1992; Nagafuji et al., in Brain Edema IX (Ito et al., eds.) 60, pp. 285-288, 1994, Springer-Verlag; Nagafuji et al., Neuroreport 6, 1541-1545, 1995). […]
The water content in the brain which was an index of brain edema formation was measured by the dry-wet method (Nagafuji et al., Neurosci. Lett. 147, 159-162, 1992) in the following manner. Forty-eight hours after the MCA occlusion, the rats were decapitated and both the right and left cerebral hemispheres were extracted from each animal within 60 seconds; the wet weight of the brain tissue of each hemisphere was measured with a chemical balance within 90 seconds. Thereafter, the hemispheres were dried in an oven at 105° C. for 3 days and their dry weights were measured. The water content in the brain was determined by the following forumula: (wet weight−dry weight)/(wet weight)×100 (%). […]

[2] = tested on: rat model of focal cerebral ischemia (temporary MCA occlusion); assay: Brain infarct volume (TTC staining) after 3-h MCA occlusion and 24-h reperfusion; assay type: in vivo
[3] = tested on: focal cerebral ischemia in rats; details: administered after 3 hours of ischemia; Zhang et al. 1995; cited from earlier work
[4] = tested on: rat model of focal cerebral ischemia; details: Nagafuji et al. 1992; cited from earlier work
[5] = tested on: gerbil model of forebrain ischemia; details: Nagafuji et al. 1993; cited from earlier work
[6] = mean of one to four independent experiments, crude enzyme, 100 nM L-[3H]arginine, read-out: IC50 value, E-cNOS (Type 3)
[7] = mean of one to four independent experiments, crude enzyme, 100 nM L-[3H]arginine, without CaCl2 and calmodulin, read-out: IC50 value, iNOS (Type 2)
[8] = conclusion from Tables 49, 50 and 51

**Q.** What does the source list for `CCSC(=N)Nc1ccc(OC)c(C(C)(C)N)c1` [Example 350, N-(1-(5-(S-ethylisothioureido)-2-methoxyphenyl)-1-methylethyl)amine]?
**A.** IC50 (E-cNOS (Type 3); [6]): 15.8 µM; Ratio of IC50 values E-cNOS/iNOS (iNOS (Type 2); index of selectivity): 0.3; IC50 (iNOS (Type 2); [7]): 58.4 µM

**Q.** What does the source list for `CCSC(=N)Nc1cccc(C(C)(C)N)c1.Cl.Cl` [Example 96, N-(1-methyl-1-(3-(S-ethylisothioureido)phenyl)ethyl)amine dihydrochloride]?
**A.** IC50 (E-cNOS (Type 3); [6]): 0.198 µM; iNOS inhibitory potency compared with the existing NOS inhibitors (L-MIN) (iNOS (Type 2); [8]): more potent in inhibiting iNOS than L-MIN; selectivity for iNOS compared to E-cNOS, compared with the existing NOS inhibitors (L-NIO) (iNOS (Type 2); [8]): more selective inhibitory effect on iNOS than L-NIO; Ratio of IC50 values E-cNOS/iNOS (iNOS (Type 2); index of selectivity): 6.9; IC50 (iNOS (Type 2); [7]): 0.0286 µM; increase in the percentage of the water content (brain edema), dose dependence ([1]; bolus 0.12-3.6 μg/kg then infusion 0.01-0.3 μg/kg/min): reduced in a dose-dependent manner; percentage of the water content in the stroke hemisphere to the contralateral hemisphere ([1]; sustained infusion 0.3 μg/kg/min following intravenous bolus 3.6 μg/kg, p<0.01, control group about 103.8%): about 102.1%; infarction, dose dependence ([2]; 3-h MCA occlusion and 24-h reperfusion, bolus 0.12-3.6 μg/kg then infusion 0.01-0.3 μg/kg/min): ameliorated in a dose-dependent manner; decrease of infarct volume ([2]; rat, in vivo, iv): about 79.7%

**Q.** What does the source list for `CCOc1ccc(NC(=N)SCC)cc1CN.Cl.Cl` [Example 324, N-(2-ethoxy-5-(S-ethylisothioureido)phenylmethyl) amine dihydrochloride]?
**A.** IC50 (E-cNOS (Type 3); [6]): 2.31 µM; Ratio of IC50 values E-cNOS/iNOS (iNOS (Type 2); index of selectivity): 0.3; IC50 (iNOS (Type 2); [7]): 8.73 µM

**Q.** With `CSC(=N)Nc1cccc(CN)c1.Cl.Cl` [Example 26, N-(3-(S-methylisothioureido)phenylmethyl)amine dihydrochloride] as the molecule, how does the IC50 (E-cNOS (Type 3); [6]) read?
**A.** 0.431 µM

**Q.** What about the “Ratio of IC50 values E-cNOS/iNOS” value (iNOS (Type 2); index of selectivity) of the same molecule?
**A.** 0.3

**Q.** And the IC50 (iNOS (Type 2); [7])?
**A.** 1.35 µM

**Q.** What does the source list for `CCSC(=N)Nc1ccc(CCN)cc1.Cl.Cl` [Example 104, N-(4-(S-ethylisothioureido)phenylethyl)amine dihydrochloride]?
**A.** IC50 (E-cNOS (Type 3); [6]): 0.118 µM; iNOS inhibitory potency compared with the existing NOS inhibitors (L-MIN) (iNOS (Type 2); [8]): more potent in inhibiting iNOS than L-MIN; Ratio of IC50 values E-cNOS/iNOS (iNOS (Type 2); index of selectivity): 1.4; IC50 (iNOS (Type 2); [7]): 0.0865 µM

**Q.** Which IC50 (E-cNOS (Type 3); [6]) does the source give for `CCN=C(N)Nc1ccc(N(C)C)c(CN)c1.Cl.Cl.Cl` [Example 267, N-(2-dimethylamino-5-(N′-ethylguanidino)phenylmethyl)amine trihydrochloride] here?
**A.** 50.1 µM

**Q.** And the “selectivity for iNOS compared to E-cNOS, compared with the existing NOS inhibitors (L-NIO)” value (iNOS (Type 2); [8])?
**A.** more selective inhibitory effect on iNOS than L-NIO

**Q.** And the “Ratio of IC50 values E-cNOS/iNOS” value (iNOS (Type 2); index of selectivity)?
**A.** 10.5

**Q.** And the IC50 (iNOS (Type 2); [7])?
**A.** 4.79 µM

**Q.** With `CSC(=N)Nc1ccc(CCN)cc1.Cl.Cl` [Example 52, N-(4-(S-methylisothioureido)phenylethyl)amine dihydrochloride] as the molecule, how does the IC50 (E-cNOS (Type 3); [6]) read?
**A.** 0.483 µM

**Q.** What about the “Ratio of IC50 values E-cNOS/iNOS” value (iNOS (Type 2); index of selectivity) of the same molecule?
**A.** 0.2

**Q.** And the IC50 (iNOS (Type 2); [7])?
**A.** 2.76 µM

**Q.** With `CCSC(=N)Nc1ccc(NC)c(CN)c1.Cl.Cl.Cl` [Example 452, N-(5-(S-ethylisothioureido)-2-methylaminophenylmethyl)amine trihydrochloride] as the molecule, how does the IC50 (E-cNOS (Type 3); [6]) read?
**A.** 3.63 µM

**Q.** What about the “Ratio of IC50 values E-cNOS/iNOS” value (iNOS (Type 2)) of the same molecule?
**A.** 0.5

**Q.** What about the IC50 (iNOS (Type 2); [7]) of the same molecule?
**A.** 6.96 µM

**Q.** Which IC50 (E-cNOS (Type 3); [6]) does the source give for `CSC(=N)Nc1cccc(C(C)N)c1.Cl.Cl` (centres unmarked) [Example 12, N-(1-(3-(S-methylisothioureido)phenyl)ethyl)amine dihydrochloride] here?
**A.** 0.538 µM

**Q.** And the “Ratio of IC50 values E-cNOS/iNOS” value (iNOS (Type 2))?
**A.** 2.3

**Q.** And the “iNOS inhibitory potency compared with the existing NOS inhibitors (L-MIN)” value (iNOS (Type 2); [8])?
**A.** more potent in inhibiting iNOS than L-MIN

**Q.** What about the IC50 (iNOS (Type 2); [7]) of the same molecule?
**A.** 0.239 µM

**Q.** With `CC(=N)NCCC[C@H](N)C(=O)O` [L-NIO, NG-iminoethyl-L-ornithine, reference compound] as the molecule, how does the IC50 (E-cNOS (Type 3); mean of one to four independent experiments, CPAE cell crude enzyme, read-out: IC50 value, E-cNOS (Type 3)) read?
**A.** 1.23 µM

**Q.** And the IC50 (iNOS (Type 2); mean of one to four independent experiments, LPS-treated rat lung crude enzyme, read-out: IC50 value, iNOS (Type 2))?
**A.** 0.458 µM

**Q.** Which results are given for `COC(=O)[C@@H](N)CCCNC(=N)N[N+](=O)[O-]` [L-NAME, N^G-nitro-L-arginine methyl ester, reference compound]?
**A.** IC50 (E-cNOS (Type 3); [6]): 0.923 µM; infarct volume [3]: decreased significantly

**Q.** What does the source list for `CCN=C(N)Nc1cccc(CN)c1Cl.Cl.Cl` [Example 538, N-(2-chloro-3-(N′-ethylguanidino)phenylmethyl)amine dihydrochloride]?
**A.** IC50 (E-cNOS (Type 3); [6]): 2.54 µM; Ratio of IC50 values E-cNOS/iNOS (iNOS (Type 2)): 8.3; selectivity for iNOS compared to E-cNOS, compared with the existing NOS inhibitors (L-NIO) (iNOS (Type 2)): more selective inhibitory effect on iNOS than L-NIO; IC50 (iNOS (Type 2); [7]): 0.306 µM

**Q.** What does the source list for `CCSC(=N)Nc1ccc(OCc2ccccc2)c(CN)c1.Cl.Cl` [Example 337, N-(2-benzyloxy-5-(S-ethylisothioureido)phenylmethyl)amine dihydrochloride]?
**A.** IC50 (E-cNOS (Type 3); [6]): 5.2 µM; Ratio of IC50 values E-cNOS/iNOS (iNOS (Type 2); index of selectivity): 0.3

**Q.** For `N/N=C(\N)NCCC[C@H](N)C(=O)O` [L-AA, N^G-amino-L-arginine, reference compound], which IC50 (E-cNOS (Type 3)) is on record?
**A.** 0.167 µM

**Q.** What about the IC50 (iNOS (Type 2)) of the same molecule?
**A.** 1.28 µM

**Q.** Which IC50 (iNOS (Type 2); [7]) does the source give for `CN(C)Cc1cccc(NC(N)=N[N+](=O)[O-])c1` [Example 39, N-(3-(N′-nitroguanidino)phenylmethyl)dimethylamine acetate] here?
**A.** 22.9 µM

**Q.** What does the source list for `CCSC(=N)Nc1cccc(CN)c1C.Cl.Cl` [Example 131, N-(3-(S-ethylisothioureido)-2-methylphenylmethyl)amine dihydrochloride]?
**A.** IC50 (E-cNOS (Type 3); [6]): 0.481 µM; Ratio of IC50 values E-cNOS/iNOS (iNOS (Type 2)): 6.2; selectivity for iNOS compared to E-cNOS, compared with the existing NOS inhibitors (L-NIO) (iNOS (Type 2)): more selective inhibitory effect on iNOS than L-NIO; iNOS inhibitory potency compared with the existing NOS inhibitors (L-MIN) (iNOS (Type 2); [8]): more potent in inhibiting iNOS than L-MIN; IC50 (iNOS (Type 2); [7]): 0.0782 µM

**Q.** What does the source list for `CCSC(=N)Nc1ccc(OC)c(CN)c1` [Example 122, N-(5-(S-ethylisothioureido)-2-methoxyphenylmethyl)amine dihydrochloride]?
**A.** IC50 (E-cNOS (Type 3); [6]): 3.53 µM; IC50 (iNOS (Type 2); [7]): 24.6 µM

**Q.** What does the source list for `CCSC(=N)Nc1ccc(N(C)C)c(CN)c1.Cl.Cl.Cl` [Example 270, N-(2-dimethylamino-5-(S-ethylisothioureido)phenylmethyl)amine trihydrochloride]?
**A.** IC50 (E-cNOS (Type 3); [6]): 3.59 µM; Ratio of IC50 values E-cNOS/iNOS (iNOS (Type 2); index of selectivity): 0.8; IC50 (iNOS (Type 2); [7]): 4.53 µM

**Q.** For `CCC(N)c1cccc(NC(N)=N[N+](=O)[O-])c1` (centres unmarked) [Example 21, N-(1-(3-(N′-nitroguanidino)phenyl)propyl)amine hydrochloride], which IC50 (iNOS (Type 2); [7]) is on record?
**A.** 2.61 µM

**Q.** For `CC(C)(N)c1cccc(NC(N)=N[N+](=O)[O-])c1.Cl` [Example 7, N-(1-methyl-1-(3-(N′-nitroguanidino)phenyl)ethyl)amine hydrochloride], which IC50 (E-cNOS (Type 3); [6]) is on record?
**A.** 0.0424 µM

**Q.** And the “Ratio of IC50 values E-cNOS/iNOS” value (iNOS (Type 2))?
**A.** 0.02

**Q.** And the IC50 (iNOS (Type 2); [7])?
**A.** 2.12 µM

**Q.** Which “effects against brain edema and infarction” value [4] does the source give for `N=C(NCCC[C@H](N)C(=O)O)N[N+](=O)[O-]` [L-NNA, N^G-nitro-L-arginine] here?
**A.** ameliorative effects

**Q.** And the “effects against neuronal cell death” value [5]?
**A.** ameliorative effects

**Q.** With `CNC(=N)NCCC[C@H](N)C(=O)O` [L-NMMA, N^G-monomethyl-L-arginine, reference compound] as the molecule, how does the IC50 (iNOS (Type 2); read-out: IC50 value, iNOS (Type 2)) read?
**A.** 3.48 µM

**Q.** For `CCSC(N)=NCCC[C@H](N)C(=O)O` [L-EIN, S-ethyl-L-thiocitrulline, reference compound], which IC50 (E-cNOS (Type 3); [6]) is on record?
**A.** 0.732 µM

**Q.** What about the IC50 (iNOS (Type 2); [7]) of the same molecule?
**A.** 6.76 µM

**Q.** Which results are given for `CSC(=N)Nc1cccc(C(C)(C)N)c1.Cl.Cl` [Example 5, N-(1-methyl-1-(3-(S-methylisothioureido)phenyl)ethyl)amine dihydrochloride]?
**A.** IC50 (E-cNOS (Type 3); [6]): 0.429 µM; Ratio of IC50 values E-cNOS/iNOS (iNOS (Type 2); index of selectivity): 1.0; IC50 (iNOS (Type 2); [7]): 0.449 µM
